This note sets out measurements from ChEMBL document CHEMBL1137935 (Bioorg Med Chem Lett, 2004).

The nature of data set [1]: Cmax after oral administration at a dose of 4 mg/kg in rat. The settings on record: in vivo. Also noted: dose 4 mg/kg, route oral. In kind it is ADME, organism-based.
The nature of data set [2]: Plasma clearance after IV dosing at 1 mg/kg in rat. In kind it is ADME, organism-based. Also noted: dose 1 mg/kg, route intravenous. The following applies: read-out: Clp.
Data set [3] in a line: Elimination half-life after oral administration at a dose of 4 mg/kg in rat. The following applies: in vivo. In kind it is ADME, organism-based. More on the design: dose 4 mg/kg, route oral.
A short description of data set [4]: Bioavailability after oral administration at a dose of 4 mg/kg in rat. In kind it is ADME, organism-based. The following applies: in vivo.
The next data set deals with T1, Adenosine receptor A1 (Cavia porcellus, UniProt P47745).
T1 sequence (P47745 whole entry): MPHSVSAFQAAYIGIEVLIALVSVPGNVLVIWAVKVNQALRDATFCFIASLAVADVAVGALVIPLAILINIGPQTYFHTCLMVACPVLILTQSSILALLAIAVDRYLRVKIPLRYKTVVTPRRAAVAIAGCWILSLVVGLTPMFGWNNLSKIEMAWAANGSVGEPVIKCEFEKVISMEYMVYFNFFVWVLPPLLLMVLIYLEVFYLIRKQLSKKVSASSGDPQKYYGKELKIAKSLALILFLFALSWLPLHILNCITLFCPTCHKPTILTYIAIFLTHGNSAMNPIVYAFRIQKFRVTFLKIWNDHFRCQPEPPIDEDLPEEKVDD
In words: Agonistic activity against adenosine A1 receptor in guinea pig isolated hearts. In kind it is functional.

Data set [5] addresses T2, Adenosine receptor A1 (Cavia porcellus) (UniProt P47745).
T2 sequence (whole entry): T1 sequence (P47745 whole entry)
Description: Binding affinity against […] using [35S]GTP-gamma-S, radioligand in guinea pig. In kind it is functional. A general note: GTPγS is a poorly hydrolysed GTP analogue; its binding reports G protein activation.

Data set [6] can be described thus: Elimination half-life after IV dosing at 1 mg/kg in rat. In kind it is ADME, organism-based. More on the design: dose 1 mg/kg, route intravenous. The settings on record: in vivo.
Data set [7] concerns the target T2, Adenosine receptor A1 (Cavia porcellus).
The target is the same in data set [8]. This is another data set of the same source.
The target is the same in data set [9]. This is another data set of the same source.
The target is the same in data set [10]. This is another data set of the same source.
The nature of data set [11]: Cmax after oral administration at a dose of 2 mg/kg in rat. In kind it is ADME, organism-based. Also noted: dose 2 mg/kg, route oral. The settings on record: in vivo.
Data set [12] is described as follows: Plasma clearance after IV dosing at 0.5 mg/kg in rat. In kind it is ADME, organism-based. More on the design: dose 0.5 mg/kg, route intravenous. The settings on record: read-out: Clp.
Data set [13] in a line: Elimination half-life after IV dosing at 0.5 mg/kg in rat. In kind it is ADME, organism-based. More on the design: dose 0.5 mg/kg, route intravenous. The settings on record: in vivo.
Data set [14] is described as follows: Elimination half-life after oral administration at a dose of 2 mg/kg in rat. In kind it is ADME, organism-based. Also noted: dose 2 mg/kg, route oral. The following applies: in vivo.
The nature of data set [15]: Bioavailability after oral administration at a dose of 2 mg/kg in rat. In kind it is ADME, organism-based. The following applies: in vivo.
For data set [16], the target named is T2, Adenosine receptor A1 (Cavia porcellus). Description: Binding affinity against adenosine A1 receptor using [3H]CPX in guinea pig DDT membrane; 117+/-46.
Data set [17] has the same target. In words: Binding affinity against adenosine A1 receptor using [3H]CCPA in guinea pig DDT membrane; 12.7+/-1.5.
The target is the same in data set [18]. In words: Binding affinity against adenosine A1 receptor using [3H]CPX in guinea pig DDT membrane; 604+/-241.

Usually Cmax stands for the highest concentration seen after dosing. One may read the half-life as the time in which the quantity being followed falls by half. One may read the bioavailability as dose-corrected exposure relative to a reference, in per cent. The term EC50 denotes the midpoint of the concentration-response curve. `OC1[C@@H](O)C(n2cnc3c(NC4CCOC4)ncnc32)O[C@@H]1CSc1ccccc1F` (single isomer, unassigned) yielded a Cmax in data set [1] of 0.107 µg/mL. Also, the clearance in data set [2] worked out at 4.16 L/h/kg. Besides, the half-life in [3] was 78 min; in data set [6], 24 min. In addition, in data set [4], the bioavailability was determined as 12.3%. It took 1.26 µM to reach a half-maximal effect on Adenosine receptor A1 (EC50). For the same compound, the efficacy relative to CPA in [5] turned out to be 72%. In data set [7], the Ki low was 0.506 µM. Moreover, in [8], the Ki high was found to be 0.079 µM.

`Cc1cccc(Cl)c1SC[C@H]1OC(n2cnc3c(NC4CCOC4)ncnc32)[C@H](O)C1O` (single isomer, unassigned) yielded an efficacy relative to CPA in [5] of 18%. Besides, the Ki low in data set [9] came to 7.29 µM. The compound also returned a Ki high in data set [10] of 0.233 µM.

The compound `OC1[C@@H](O)C(n2cnc3c(NC4CCOC4)ncnc32)O[C@@H]1COc1ccccc1F` (single isomer, unassigned) gave a Cmax in data set [11] of 0.0603 µg/mL. In addition, the clearance in data set [12] turned out to be 12.1 L/h/kg. In addition, the results for the half-life in [13] and in data set [14] were 18 min and 96 min, respectively. The same compound came in with a bioavailability in data set [15] of 81%. For the same compound, the EC50 at Adenosine receptor A1 turned out to be 0.2 µM. In data set [16], the Ki low is 0.117 µM. Also, the Ki high in [17] worked out at 0.0127 µM. Also, in [5], the efficacy relative to CPA turned out to be 78%.

In turn, `OC1[C@@H](O)C(n2cnc3c(NC4CCOC4)ncnc32)O[C@@H]1COc1cccc(F)c1` (single isomer, unassigned) gave a Ki low in data set [18] of 0.604 µM. For the same compound, the efficacy relative to CPA in data set [5] was found to be 70%.
